≈ marks a conversion by molar mass, not a printed value.
Assay: Solubility of buprenorphine FB in release media
Type: physicochemical
Details: 48 hours
Protocol: The solubility of buprenorphine FB was determined in PBS with 0.05% Tween 20 (PBST) and 0.5% w/v sodium dodecyl sulfate (SDS) in water. The solubility was determined by placing excess buprenorphine FB into the media mentioned above at 37° C. and shaking at 40 RPM for 48 hours. After 48 hours, a sample was taken and centrifuged at 15,000 RPM for 5 minutes. The supernatant was then collected and diluted with the same medium, and the concentration was determined using high-performance liquid chromatography.

SMILES: CO[C@@]12CC[C@@]3(C[C@@H]1[C@](C)(O)C(C)(C)C)[C@H]1Cc4ccc(O)c5c4[C@@]3(CCN1CC1CC1)[C@H]2O5 [Buprenorphine FB, Buprenorphine free base]
- Solubility in 0.5% SDS (0.5% w/v sodium dodecyl sulfate in water, 37° C.): 336 µg/mL (≈ 718 µM)
- Solubility in PBST (PBS with 0.05% Tween 20, 37° C.): 8.8 µg/mL (≈ 18.8 µM)
